Article doi:10.1101/2021.02.13.431112v1 (bioRxiv, 2021)
pIC50: −log10 of the molar value.

How the values were obtained:
SKOV3 cells = test: Confocal uptake of NBD-Def1; assay type: cell-based; conditions: confocal microscopy, 20, 6.6 or 2.2 ug/ml, 15 min, 37C, N=4
MDA-MB-231R cells = test: Confocal uptake of NBD-Def1; assay type: cell-based; conditions: confocal microscopy, 20, 6.6 or 2.2 ug/ml, 15 min, 37C, N=4
fibroblasts cells = test: Confocal uptake of NBD-Def1; assay type: cell-based; conditions: confocal microscopy, 5 times higher dose (200 mg/mL)
[1] = tested on: MCF-10A normal epithelial breast cells; test: Confocal uptake of NBD-Def1; assay type: cell-based; conditions: confocal microscopy, 5 times higher dose (200 mg/mL)
[2] = tested on: induced pluripotent stem cell derived cardiomyocytes (iPSC); test: MTT viability assay, IC-50; assay type: cell-based, human
MCF-10A Epithelial Cells = test: MTT viability assay, IC-50; assay type: cell-based; conditions: normal epithelial breast cells, 24 h
MCF-7R cells = test: Ceramide release by LC-MS/MS; assay type: cell-based; conditions: 20 μM, 6 hrs, Doxorubicin resistant MCF-7R cells, n=4, preliminary
[3] = tested on: Bone Marrow Cells MSC-001F; test: Viability assay, IC-50; assay type: cell-based; conditions: normal cells
[4] = 15N NMR chemical shift mapping of Def1 binding to GlcCer; conditions: 15N-labeled Def1, chemical shift perturbation, T1, 15N-1H NOE; N=3
ASK1 = test: Immunoblot of ASK1 Thr845 phosphorylation; assay type: cell-based; conditions: 50 μM, 60 minutes, MDA-MB-231 cells, vs solvent control and NAC control, N=4
thioredoxin (Trx) = biological target: T1, thioredoxin (Trx) (Homo sapiens, UniProt P10599); test: Thioredoxin redox Western blot; assay type: cell-based; conditions: 20 μM Def1, Doxorubicin resistant MDA-MB-231-R cells, N=4
T1 sequence (P10599 1-105): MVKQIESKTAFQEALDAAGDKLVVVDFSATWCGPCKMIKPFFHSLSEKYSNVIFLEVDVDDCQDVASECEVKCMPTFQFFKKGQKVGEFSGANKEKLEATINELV

BT-549 = conditions: read-out: IC-50, BT-549; unit printed only in neighbouring columns; ref 39b; cited from earlier work
MDA-MB-231 = conditions: read-out: IC-50, MDA-MB-231; unit printed only in neighbouring columns; ref 39b; cited from earlier work
MCF-7 = conditions: read-out: IC-50, MCF-7; unit printed only in neighbouring columns; ref 39b; cited from earlier work

6-((N-(7-nitrobenz-2-oxa-1, 3-diazol-4-yl) amino) hexanoyl (NBD)-Def1 [NBD-Def1]
uptake, SKOV3 (SKOV3 cells): concentration dependent uptake
uptake, MDA-MB-231R (MDA-MB-231R cells): concentration dependent uptake
uptake, fibroblasts (fibroblasts cells): did not pick up
uptake, normal epithelial breast cells MCF-10A [1]: did not pick up

COc1cccc2c1C(=O)c1c(O)c3c(c(O)c1C2=O)C[C@@](O)(C(=O)CO)C[C@@H]3O[C@H]1C[C@H](N)[C@H](O)[C@H](C)O1 [Doxorubicin, reference compound]
more potency for cardiomyocytes and bone marrow cells ([2]; in contrast to Def1): 10-15 times

Medicago sativa Defensin 1 [Def1]
IC-50, MCF-10A Epithelial Cells (MCF-10A Epithelial Cells): > 200 µM
accumulation of ceramide (MCF-7R cells): enhanced accumulation of ceramide
IC-50, Bone Marrow Cells MSC-001F [3]: > 150 µM
IC-50, iPSC (induced pluripotent stem cell derived cardiomyocytes) ([2]; human iPSC cardiomyocytes, MTT, 24 h): > 180 µM
binding to GlcCer [4]: binds to GlcCer at two regions
phosphorylation of Thr845 residue of ASK1 (ASK1): significant increase
oxidation of Trx (new band at 28 KDa) (thioredoxin (Trx)): oxidation of Trx

hBD-1: Human Beta Defensin (hBD-1) with three S-S bonds (DHYNCVSSGGQCLYSACPIFTKIQGTCYRGKAKCCK; Beta-defensin 1; UniProt P60022 33-68, looked up)
pIC50 (BT-549): 4.77
pIC50 (MDA-MB-231): 4.74
pIC50 (MCF-7): 4.68
